Measured values reported in EP0745595A1, “3-(3-Aryloxyphenyl)-1-(substituted methyl)-s-triazine-2,4,6-oxo or thiotrione herbicidal agents” (American Cyanamid Company, priority 1995, dated 1996).

Legend:
Type in all cases: in vivo
[1] = tested on: ABUTILON THEOPHRASTI, MEDIC.; assay: Postemergence herbicidal evaluation, ABUTH (Velvetleaf); details: rated four to five weeks after treatment, averaged
Experimental: (§1) In the tests, seedling plants are grown in jiffy flats for about two weeks. The test compounds are dispersed in 50/50 acetone/water mixtures containing 0.5% TWEEN®20, a polyoxyethylene sorbitan monolaurate surfactant of Atlas Chemical Industries, […] to the plants through a spray nozzle operating at 40 psi for a predetermined time. After spraying, the plants are placed on greenhouse benches and are cared for in the usual manner, commensurate with conventional greenhouse practices. From four to five weeks after treatment, the seedling plants are examined and rated according to the rating system set forth below. Where more than one test is involved for a given compound, the data are averaged.
(§2) Plant species employed in these evaluations are reported by header abbreviation, common name and scientific name.
(§3) Results of herbicide evaluation are expressed on a rating scale (0-9). The scale is based upon a visual observation of plant stand, vigor, malformation, size, chlorosis and overall plant appearance as compared with a control.

[2] = tested on: ORYZA SATIVA, L. TEBONNET; assay: Rice tolerance to post-transplant applications under flooded paddy conditions, ORYSAT (Rice, Tebonnet); details: post-transplant rice, 3-4 weeks after treatment
Experimental: as §3
The tolerance of transplanted rice to post-transplanted herbicide applications is determined as follows: two ten-day-old rice seedlings (CV. Tebonnet) are transplanted into a silt loam soil in 32 oz. plastic containers with a diameter of 10.5 cm and no drainage holes. After transplanting the containers are flooded and the water level is maintained at 1.5 to 3 cm above the soil surface. […] The treated containers are placed on greenhouse benches, watered such that the water level is maintained as stated above, and cared for according to normal greenhouse procedures. Three to four weeks after treatment the test is terminated and each container is examined and herbicidal effect rated according to the rating system provided in Example 40. The compounds evaluated are reported by compound number given in Example 40.
(§4) Plant species employed in this example are reported by header abbreviation, common name and scientific name.

SAGITTARIA PYGMAEA, L. = assay: Preemergence weed control under flooded paddy conditions, SAGPY (Arrowhead (Pygmaea)); details: preemergence, 3-4 weeks after treatment
Experimental: as §3
Preemergence herbicidal activity under flooded paddy conditions is determined as follows: plant seeds or propagating organs are planted in the top 0.5 cm of silt loam soil in 32 oz. plastic containers with a diameter of 10.5 cm and no drainage holes. Water is added to these containers and maintained at 1.5 to 3 cm above the soil surface for the duration of the experiment. […] The treated containers are placed on greenhouse benches and cared for according to normal greenhouse procedures.- Three to four weeks after treatment the test is terminated and each container is examined and herbicidal effect rated according to the rating system provided in Example 40. The compounds evaluated are reported by compound number given in Example 40.
as §4

IPOMOEA SPP. = assay: Postemergence herbicidal evaluation, IPOSS (Morningglory spp.); details: rated four to five weeks after treatment, averaged
Experimental: as §1, §2, §3

COC(=O)Cn1c(=O)n(C)c(=O)n(-c2cc(Oc3ccc(Cl)c(C)c3Cl)ccc2[N+](=O)[O-])c1=O [Compound 20, Methyl 3-{5-[(2,4-dichloro-m-tolyl)oxy]-2-nitrophenyl}tetrahydro-5-methyl-2,4,6-trioxo-s-triazine-1(2H)-acetate]
ABUTH, herbicide rating (0-9) ([1]; Rate 0.125 kg/ha): 9.0
ABUTH, herbicide rating (0-9) ([1]; Rate 0.250 kg/ha): 9.0
ABUTH, herbicide rating (0-9) ([1]; Rate 0.500 kg/ha): 9.0
Herbicidal effect rating, ORYSAT ([2]; 0.063 kg/ha): 2.0
Herbicidal effect rating, ORYSAT ([2]; 0.125 kg/ha): 3.0
Herbicidal effect rating, ORYSAT ([2]; 0.250 kg/ha): 3.0
Herbicidal effect rating, ORYSAT ([2]; 0.500 kg/ha): 4.0
Herbicidal effect rating, SAGPY (SAGITTARIA PYGMAEA, L.; 0.063 kg/ha): 0.0
Herbicidal effect rating, SAGPY (SAGITTARIA PYGMAEA, L.; 0.125 kg/ha): 0.0
Herbicidal effect rating, SAGPY (SAGITTARIA PYGMAEA, L.; 0.250 kg/ha): 0.0
Herbicidal effect rating, SAGPY (SAGITTARIA PYGMAEA, L.; 0.500 kg/ha): 0.0
IPOSS, herbicide rating (0-9) (IPOMOEA SPP.; Rate 0.125 kg/ha): 9.0
IPOSS, herbicide rating (0-9) (IPOMOEA SPP.; Rate 0.250 kg/ha): 9.0
IPOSS, herbicide rating (0-9) (IPOMOEA SPP.; Rate 0.500 kg/ha): 9.0

COC(=O)Cn1c(=O)n(C)c(=O)n(-c2cc(Oc3ccc(Cl)cc3F)ccc2[N+](=O)[O-])c1=O [Compound 23, Methyl 3-[5-(4-chloro-2-fluorophenoxy)-2-nitrophenyl]tetrahydro-5-methyl-2,4,6-trioxo-s-triazine-1(2H)-acetate]
Herbicidal effect rating, ORYSAT ([2]; 0.063 kg/ha): 2.0
Herbicidal effect rating, ORYSAT ([2]; 0.125 kg/ha): 2.0
Herbicidal effect rating, ORYSAT ([2]; 0.250 kg/ha): 3.0
Herbicidal effect rating, ORYSAT ([2]; 0.500 kg/ha): 3.0
Herbicidal effect rating, SAGPY (SAGITTARIA PYGMAEA, L.; 0.063 kg/ha): 0.0
Herbicidal effect rating, SAGPY (SAGITTARIA PYGMAEA, L.; 0.125 kg/ha): 0.0
Herbicidal effect rating, SAGPY (SAGITTARIA PYGMAEA, L.; 0.250 kg/ha): 0.0
Herbicidal effect rating, SAGPY (SAGITTARIA PYGMAEA, L.; 0.500 kg/ha): 0.0

COC(=O)Cn1c(=O)n(C)c(=O)n(-c2cc(Oc3ccc(Cl)c(Cl)c3Cl)ccc2[N+](=O)[O-])c1=O [Compound 26, Methyl 3-[2-nitro-5-(2,3,4-trichlorophen-oxy)phenyl]tetrahydro-5-methyl-2,4,6-tri-oxo-s-triazine-1(2H)-acetate]
Herbicidal effect rating, ORYSAT ([2]; 0.063 kg/ha): 2.0
Herbicidal effect rating, ORYSAT ([2]; 0.125 kg/ha): 2.0
Herbicidal effect rating, ORYSAT ([2]; 0.250 kg/ha): 3.0
Herbicidal effect rating, ORYSAT ([2]; 0.500 kg/ha): 3.0
Herbicidal effect rating, SAGPY (SAGITTARIA PYGMAEA, L.; 0.063 kg/ha): 0.0
Herbicidal effect rating, SAGPY (SAGITTARIA PYGMAEA, L.; 0.125 kg/ha): 0.0
Herbicidal effect rating, SAGPY (SAGITTARIA PYGMAEA, L.; 0.250 kg/ha): 0.0
Herbicidal effect rating, SAGPY (SAGITTARIA PYGMAEA, L.; 0.500 kg/ha): 0.0
